Data from ChEMBL document CHEMBL5653615 (J Biol Chem, 2013).

Legend:
[1] = target: Death-associated protein kinase 2 (Homo sapiens) (UniProt Q9UIK4); test: Inhibition of human DAPK2 at 500 nM by HotSpot assay relative to control
[2] = target: Serine/threonine-protein kinase PLK2 (Homo sapiens) (UniProt Q9NYY3); test: Inhibition of human PLK2 at 500 nM by HotSpot assay relative to control
[3] = target: Tyrosine-protein kinase Lyn (Homo sapiens) (UniProt P07948); test: Inhibition of human LYN B at 500 nM by HotSpot assay relative to control
Sequence of Tyrosine-protein kinase Lyn (Homo sapiens) (P07948 2-512 limits assumed): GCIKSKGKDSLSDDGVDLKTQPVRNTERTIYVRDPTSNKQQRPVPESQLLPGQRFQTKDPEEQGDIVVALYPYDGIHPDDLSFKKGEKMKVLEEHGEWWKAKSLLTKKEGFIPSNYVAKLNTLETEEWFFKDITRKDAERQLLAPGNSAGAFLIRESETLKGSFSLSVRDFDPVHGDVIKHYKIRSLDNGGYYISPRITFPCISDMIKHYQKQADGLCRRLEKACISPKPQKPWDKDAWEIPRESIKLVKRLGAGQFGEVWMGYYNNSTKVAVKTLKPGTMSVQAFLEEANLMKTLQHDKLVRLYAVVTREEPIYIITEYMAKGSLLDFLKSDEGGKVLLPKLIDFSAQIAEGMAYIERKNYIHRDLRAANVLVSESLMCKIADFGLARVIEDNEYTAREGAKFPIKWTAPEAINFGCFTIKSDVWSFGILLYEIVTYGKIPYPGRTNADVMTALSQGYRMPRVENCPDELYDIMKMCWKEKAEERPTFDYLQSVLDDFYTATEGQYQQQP

[4] = target: T1, Tyrosine-protein kinase Tec (Homo sapiens) (UniProt P42680); test: Inhibition of human TEC at 500 nM by HotSpot assay relative to control
T1 sequence (whole entry): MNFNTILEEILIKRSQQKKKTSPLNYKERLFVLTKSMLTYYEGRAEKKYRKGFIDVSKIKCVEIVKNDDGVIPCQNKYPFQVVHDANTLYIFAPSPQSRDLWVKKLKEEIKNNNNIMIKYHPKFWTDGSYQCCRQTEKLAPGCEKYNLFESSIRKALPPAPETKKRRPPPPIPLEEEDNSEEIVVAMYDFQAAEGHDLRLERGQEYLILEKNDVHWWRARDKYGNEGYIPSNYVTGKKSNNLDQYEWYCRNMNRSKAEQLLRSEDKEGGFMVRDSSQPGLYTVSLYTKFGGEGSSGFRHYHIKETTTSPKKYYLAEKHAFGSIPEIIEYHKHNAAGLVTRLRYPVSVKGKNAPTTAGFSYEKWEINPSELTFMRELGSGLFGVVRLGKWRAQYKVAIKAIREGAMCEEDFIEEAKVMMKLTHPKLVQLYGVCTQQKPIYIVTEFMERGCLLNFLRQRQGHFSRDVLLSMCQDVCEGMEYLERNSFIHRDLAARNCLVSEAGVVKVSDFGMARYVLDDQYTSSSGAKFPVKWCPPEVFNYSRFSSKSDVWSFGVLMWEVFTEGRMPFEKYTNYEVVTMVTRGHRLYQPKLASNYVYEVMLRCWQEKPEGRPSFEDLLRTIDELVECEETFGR

[5] = target: Serine/threonine-protein kinase Chk2 (Homo sapiens) (UniProt O96017); test: Inhibition of human CHK2 at 500 nM by HotSpot assay relative to control
Sequence of Serine/threonine-protein kinase Chk2 (Homo sapiens) (O96017 whole entry): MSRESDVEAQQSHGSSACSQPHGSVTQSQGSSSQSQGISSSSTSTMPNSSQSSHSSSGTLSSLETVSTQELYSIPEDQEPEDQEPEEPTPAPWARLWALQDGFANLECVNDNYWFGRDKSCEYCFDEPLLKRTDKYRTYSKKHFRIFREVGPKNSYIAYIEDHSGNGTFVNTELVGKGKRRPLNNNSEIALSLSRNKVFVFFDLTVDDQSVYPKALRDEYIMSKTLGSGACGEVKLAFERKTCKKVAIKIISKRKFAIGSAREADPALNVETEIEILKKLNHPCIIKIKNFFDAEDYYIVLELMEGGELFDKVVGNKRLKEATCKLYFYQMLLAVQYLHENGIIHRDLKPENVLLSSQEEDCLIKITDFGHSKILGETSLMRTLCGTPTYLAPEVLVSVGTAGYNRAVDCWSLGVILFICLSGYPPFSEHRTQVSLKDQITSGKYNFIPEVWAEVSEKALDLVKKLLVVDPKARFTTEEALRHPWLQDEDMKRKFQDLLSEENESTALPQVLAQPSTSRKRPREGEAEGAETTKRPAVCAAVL

[6] = target: Angiopoietin-1 receptor (Homo sapiens) (UniProt Q02763); test: Inhibition of human TEK at 500 nM by HotSpot assay relative to control
[7] = target: Tyrosine-protein kinase Srms (Homo sapiens) (UniProt Q9H3Y6); test: Inhibition of human SRMS at 500 nM by HotSpot assay relative to control
Sequence of Tyrosine-protein kinase Srms (Homo sapiens) (Q9H3Y6 whole entry): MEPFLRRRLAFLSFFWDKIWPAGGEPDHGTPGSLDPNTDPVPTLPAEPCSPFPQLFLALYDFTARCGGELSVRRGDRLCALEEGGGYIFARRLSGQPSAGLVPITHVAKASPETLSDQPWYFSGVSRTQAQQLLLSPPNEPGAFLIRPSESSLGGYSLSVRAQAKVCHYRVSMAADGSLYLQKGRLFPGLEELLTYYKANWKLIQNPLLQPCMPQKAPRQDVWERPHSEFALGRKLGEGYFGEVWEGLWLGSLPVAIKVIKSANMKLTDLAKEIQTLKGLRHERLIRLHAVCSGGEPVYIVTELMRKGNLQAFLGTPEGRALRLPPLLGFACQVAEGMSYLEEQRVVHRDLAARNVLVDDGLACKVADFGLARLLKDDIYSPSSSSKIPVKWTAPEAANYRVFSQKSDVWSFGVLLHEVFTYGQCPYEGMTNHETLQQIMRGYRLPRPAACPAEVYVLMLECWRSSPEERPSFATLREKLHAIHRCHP

[8] = target: Mitogen-activated protein kinase kinase kinase 10 (Homo sapiens) (UniProt Q02779); test: Inhibition of human MAP3K10 at 500 nM by HotSpot assay relative to control
[9] = target: Mitogen-activated protein kinase kinase kinase 11 (Homo sapiens) (UniProt Q16584); test: Inhibition of human MAP3K11 at 500 nM by HotSpot assay relative to control
[10] = target: Protein kinase C gamma type (Homo sapiens) (UniProt P05129); test: Inhibition of human PKCg at 500 nM by HotSpot assay relative to control
[11] = target: Ephrin type-A receptor 4 (Homo sapiens) (UniProt P54764); test: Inhibition of human EPHA4 at 500 nM by HotSpot assay relative to control
Sequence of Ephrin type-A receptor 4 (Homo sapiens) (P54764 whole entry): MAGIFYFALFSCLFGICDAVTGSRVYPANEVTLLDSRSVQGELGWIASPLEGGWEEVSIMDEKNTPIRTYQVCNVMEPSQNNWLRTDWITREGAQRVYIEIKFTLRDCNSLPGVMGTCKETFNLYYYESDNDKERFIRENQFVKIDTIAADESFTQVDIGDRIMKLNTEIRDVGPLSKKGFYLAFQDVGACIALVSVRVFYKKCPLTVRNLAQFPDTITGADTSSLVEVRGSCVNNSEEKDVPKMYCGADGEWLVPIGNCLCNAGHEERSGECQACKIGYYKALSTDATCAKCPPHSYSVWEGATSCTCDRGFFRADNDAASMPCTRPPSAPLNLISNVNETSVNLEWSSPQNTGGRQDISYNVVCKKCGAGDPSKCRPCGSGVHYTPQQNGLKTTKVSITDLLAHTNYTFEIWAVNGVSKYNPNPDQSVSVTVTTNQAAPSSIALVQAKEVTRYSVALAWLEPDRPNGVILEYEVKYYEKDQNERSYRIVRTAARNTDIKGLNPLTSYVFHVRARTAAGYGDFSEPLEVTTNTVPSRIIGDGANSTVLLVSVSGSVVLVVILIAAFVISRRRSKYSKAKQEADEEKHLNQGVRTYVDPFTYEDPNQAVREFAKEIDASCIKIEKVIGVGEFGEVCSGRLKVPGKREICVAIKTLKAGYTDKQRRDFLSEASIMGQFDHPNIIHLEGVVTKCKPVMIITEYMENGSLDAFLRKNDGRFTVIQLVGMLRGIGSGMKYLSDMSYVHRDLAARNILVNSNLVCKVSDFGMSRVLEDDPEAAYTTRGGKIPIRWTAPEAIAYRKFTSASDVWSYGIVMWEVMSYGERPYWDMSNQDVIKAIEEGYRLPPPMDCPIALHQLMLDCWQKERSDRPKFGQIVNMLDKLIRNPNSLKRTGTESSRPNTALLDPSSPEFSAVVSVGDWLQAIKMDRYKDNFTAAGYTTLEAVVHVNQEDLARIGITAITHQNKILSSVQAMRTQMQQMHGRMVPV

[12] = target: Vascular endothelial growth factor receptor 1 (Homo sapiens) (UniProt P17948); test: Inhibition of human FLT1 at 500 nM by HotSpot assay relative to control
[13] = target: Dual specificity tyrosine-phosphorylation-regulated kinase 1B (Homo sapiens) (UniProt Q9Y463); test: Inhibition of human DYRK1B at 500 nM by HotSpot assay relative to control
Sequence of Dual specificity tyrosine-phosphorylation-regulated kinase 1B (Homo sapiens) (Q9Y463 whole entry, looked up): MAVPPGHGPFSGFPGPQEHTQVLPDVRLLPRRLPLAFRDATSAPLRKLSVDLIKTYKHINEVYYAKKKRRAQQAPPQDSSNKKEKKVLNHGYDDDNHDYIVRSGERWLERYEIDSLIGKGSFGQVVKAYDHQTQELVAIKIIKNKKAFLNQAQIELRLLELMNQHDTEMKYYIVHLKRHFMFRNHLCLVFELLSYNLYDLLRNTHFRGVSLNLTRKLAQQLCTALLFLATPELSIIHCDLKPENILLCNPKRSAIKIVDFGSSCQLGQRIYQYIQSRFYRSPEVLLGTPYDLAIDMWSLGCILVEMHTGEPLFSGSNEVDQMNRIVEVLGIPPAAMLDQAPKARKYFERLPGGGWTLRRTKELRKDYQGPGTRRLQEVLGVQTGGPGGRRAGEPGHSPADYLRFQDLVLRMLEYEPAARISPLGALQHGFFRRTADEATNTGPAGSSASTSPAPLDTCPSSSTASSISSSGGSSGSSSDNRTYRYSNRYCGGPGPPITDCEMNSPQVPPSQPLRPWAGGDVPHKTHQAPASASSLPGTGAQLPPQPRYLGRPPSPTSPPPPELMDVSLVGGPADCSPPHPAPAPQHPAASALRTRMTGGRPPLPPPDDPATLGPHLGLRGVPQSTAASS

[14] = target: T2, Serine/threonine-protein kinase Nek9 (Homo sapiens) (UniProt Q8TD19); test: Inhibition of human NEK9 at 500 nM by HotSpot assay relative to control
T2 sequence (whole entry): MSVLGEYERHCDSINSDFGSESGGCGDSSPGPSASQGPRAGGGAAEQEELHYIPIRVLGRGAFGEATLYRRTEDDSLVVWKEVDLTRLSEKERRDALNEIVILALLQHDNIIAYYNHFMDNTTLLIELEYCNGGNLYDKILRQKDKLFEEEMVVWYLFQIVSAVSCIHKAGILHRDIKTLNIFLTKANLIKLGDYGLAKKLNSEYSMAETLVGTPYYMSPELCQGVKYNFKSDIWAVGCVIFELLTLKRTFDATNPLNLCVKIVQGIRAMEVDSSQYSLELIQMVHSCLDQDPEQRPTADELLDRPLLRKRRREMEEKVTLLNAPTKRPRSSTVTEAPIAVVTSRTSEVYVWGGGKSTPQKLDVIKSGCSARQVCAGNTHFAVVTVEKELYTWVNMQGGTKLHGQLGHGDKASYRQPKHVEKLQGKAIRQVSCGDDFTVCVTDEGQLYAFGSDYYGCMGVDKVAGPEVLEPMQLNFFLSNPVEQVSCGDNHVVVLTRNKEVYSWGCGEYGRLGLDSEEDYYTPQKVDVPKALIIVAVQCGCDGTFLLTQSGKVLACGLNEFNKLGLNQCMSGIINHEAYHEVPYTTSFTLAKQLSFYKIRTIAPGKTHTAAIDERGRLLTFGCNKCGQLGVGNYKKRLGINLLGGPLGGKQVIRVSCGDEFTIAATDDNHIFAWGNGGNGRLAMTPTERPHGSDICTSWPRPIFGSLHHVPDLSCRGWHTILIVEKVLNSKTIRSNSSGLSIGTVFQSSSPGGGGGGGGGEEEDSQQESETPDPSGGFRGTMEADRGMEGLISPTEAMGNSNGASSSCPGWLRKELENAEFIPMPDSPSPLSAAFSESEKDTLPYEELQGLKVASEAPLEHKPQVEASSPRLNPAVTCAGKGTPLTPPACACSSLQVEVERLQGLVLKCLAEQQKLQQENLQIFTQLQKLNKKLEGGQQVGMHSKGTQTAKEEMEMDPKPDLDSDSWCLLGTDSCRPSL

[15] = target: Homeodomain-interacting protein kinase 3 (Homo sapiens) (UniProt Q9H422); test: Inhibition of human HIPK3 at 500 nM by HotSpot assay relative to control
[16] = target: Tyrosine-protein kinase HCK (Homo sapiens) (UniProt P08631); test: Inhibition of human HCK at 500 nM by HotSpot assay relative to control
[17] = target: Leukocyte tyrosine kinase receptor (Homo sapiens) (UniProt P29376); test: Inhibition of human LTK at 500 nM by HotSpot assay relative to control
[18] = target: Ephrin type-B receptor 4 (Homo sapiens) (UniProt P54760); test: Inhibition of human EPHB4 at 500 nM by HotSpot assay relative to control
Sequence of Ephrin type-B receptor 4 (Homo sapiens) (P54760 whole entry): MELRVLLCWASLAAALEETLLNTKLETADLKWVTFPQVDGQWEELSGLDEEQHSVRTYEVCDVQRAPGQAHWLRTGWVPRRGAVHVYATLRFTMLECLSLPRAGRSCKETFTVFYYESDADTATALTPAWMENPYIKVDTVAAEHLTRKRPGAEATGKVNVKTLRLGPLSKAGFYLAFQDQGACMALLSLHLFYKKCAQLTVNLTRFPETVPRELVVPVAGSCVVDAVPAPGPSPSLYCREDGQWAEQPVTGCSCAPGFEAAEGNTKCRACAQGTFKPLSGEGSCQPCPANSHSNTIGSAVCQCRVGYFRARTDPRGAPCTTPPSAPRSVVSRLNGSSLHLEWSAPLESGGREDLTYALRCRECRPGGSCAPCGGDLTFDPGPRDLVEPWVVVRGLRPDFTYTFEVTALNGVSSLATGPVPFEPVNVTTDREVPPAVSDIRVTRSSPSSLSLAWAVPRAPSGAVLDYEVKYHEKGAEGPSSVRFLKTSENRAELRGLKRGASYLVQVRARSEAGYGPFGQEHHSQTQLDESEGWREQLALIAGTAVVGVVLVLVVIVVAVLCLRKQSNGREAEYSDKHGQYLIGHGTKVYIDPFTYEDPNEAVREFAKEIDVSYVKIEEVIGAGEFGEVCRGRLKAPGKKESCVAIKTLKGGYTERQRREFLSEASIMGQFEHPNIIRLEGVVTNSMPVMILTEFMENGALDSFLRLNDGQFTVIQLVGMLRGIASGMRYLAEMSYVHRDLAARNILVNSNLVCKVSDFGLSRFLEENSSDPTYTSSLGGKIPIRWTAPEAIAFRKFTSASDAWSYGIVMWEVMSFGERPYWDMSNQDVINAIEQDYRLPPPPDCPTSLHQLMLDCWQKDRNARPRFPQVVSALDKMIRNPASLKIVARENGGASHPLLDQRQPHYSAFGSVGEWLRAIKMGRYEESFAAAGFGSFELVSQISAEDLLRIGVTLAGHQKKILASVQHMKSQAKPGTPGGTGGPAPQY

Row | SMILES | inhibition [1] | inhibition [2] | inhibition [3] | inhibition [4] | inhibition [5] | inhibition [6] | inhibition [7] | inhibition [8] | inhibition [9] | inhibition [10] | inhibition [11] | inhibition [12] | inhibition [13] | inhibition [14] | inhibition [15] | inhibition [16] | inhibition [17] | inhibition [18]
1 | Oc1n[nH]c2nnc(-c3c(-c4ccccc4)nn4ccccc34)cc12 | -0.84% | -3.28% | 2.89% | -3% | 1.86% | 4.05% | 0.83% | 5.25% | 2.87% | -2.44% | -8.13% | 0.38% | -1.78% | 10.2% | -0.3% | 7.7% | -7.87% | 2.91%
2 | Nc1n[nH]c2nnc(-c3c(-c4ccccc4)nn4ccccc34)cc12 | -2.75% | -6.73% | 2.89% | 3.88% | 2.97% | 3.45% | 7.04% | 9.29% | 5.68% | -2.64% | 14.1% | 3.34% | -0.86% | 6.65% | -3.93% | 8.92% | 9.45% | 1.54%
